Tests used:
JAZ2 promoter = test: pJAZ2:GUS promoter expression (GUS staining); format: cell-based, Arabidopsis; settings: 50 μM JA, 2 h, young seedlings
Text: (§1) Transgenic Arabidopsis lines expressing pJAZ:GUS promoter fusions were obtained by cloning the corresponding pJAZ PCR products (pJAZ1 fw cacc[…] [SEQ ID NO: 29]; pJAZ1 rev […] [SEQ ID NO: 30]; pJAZ2 fw cacc[…] [SEQ ID NO: 31]; pJAZ2 rev […] [SEQ ID NO: 32]; pJAZ3 fw cacc[…] [SEQ ID NO: 33]; pJAZ3 rev […] [SEQ ID NO: 34]) into the pENTR™/D-TOPO® system (Invitrogen) and then transferring them to pGWB3. Agrobacterium strain GV3101, containing these constructs, was used to transform Col-0 plants by floral dipping (Clough, S. J. and Bent, A. F. Plant J. 1998, 16(6): 735-743). Several transgenic lines were checked for Kanamycin and Hygromycin resistance and lines carrying one insertion were driven to homozygosis and used for further analysis. pJAZ2:GUS in coi1-30 background was generated by crossing the corresponding parental single homozygous lines. Arabidopsis lines expressing pMYC3:GUS and pMYC4:GUS promoter fusions, were previously reported (Fernandez-Calvo, P. et al. Plant Cell. 2011, 23(2): 701-715). The lines JAZ2-3 (RIKEN_ 13-5433-1) and JAZ2ΔJas (GABI_169B06) were obtained from the Nottingham Arabidopsis Stock Centre. The line JAZ1ΔJas (SEQ ID NO: 61) was obtained from an Arabidopsis activation tagging population (Weigel, D. et al. Plant Physiol. 2000, 122(4): 1003-1013). […]

JAZ1 promoter = test: pJAZ1:GUS promoter expression (GUS staining); format: cell-based, Arabidopsis; settings: 50 μM JA, 2 h
Text: as §1

stomata guard cells = test: Stomatal aperture measurements (MAMP-induced closure, COR-induced reopening); format: cell-based, Arabidopsis; settings: leaves incubated with MAMPs and 2 μM COR simultaneously
Description: Whole leaves from 4- to 6-week-old Arabidopsis plants were collected and exposed to white light for 1.30 hours while floating in a solution containing 50 mM KCl, 10 μm CaCl2, and 10 mm MES-KOH pH=6.1 (opening stomata buffer) with moderate shaking (50 rpm) to induce homogenous stomatal aperture among all Arabidopsis lines to compare. To do the MAMP-induced closure assays, the previous solution was removed and whole leaves were immersed in opening stomata buffer containing Pto DC3000 MAMP extracts at OD600=1,5 (7,5×10^8 cfu/ml), 2 μM of coronatine or a mock solution. Samples were further incubated under the same previous conditions for 4-5 hours. Then, leaves were rapidly peeled and abaxial epidermal peels were placed on cover slips and observed with a microscope (Leica DMR). Stomatal aperture (width/length) was measured using ImageJ software. Error bars represent standard error of the mean (SEM) (n=20). Stomatal experiments were repeated at least three independent times and representative results are shown.
We next analyzed the ability of JAZ2-3 to close stomata upon microbial perception and reopen it in the presence of COR. […] Typically, Pto DC3000 MAMPs were used at optical density at 600 nm OD600=1,5 (7,5×10^8 cfu/ml) for incubation with leaves (Stomatal Aperture Measurements) or Arabidopsis seedlings (Quantitative RT-PCR). […]

JAZ2 protein = target: T1, JAZ2 protein (Arabidopsis thaliana, UniProt O04197+Q9S7M2); test: JAZ2 protein stability (35S JAZ2-GUS staining); format: cell-based; settings: JAZ2-GUS transgenic seedlings, 3 h
T1 construct: expressed in transfected cells
T1 sequence (Q9S7M2 1-249): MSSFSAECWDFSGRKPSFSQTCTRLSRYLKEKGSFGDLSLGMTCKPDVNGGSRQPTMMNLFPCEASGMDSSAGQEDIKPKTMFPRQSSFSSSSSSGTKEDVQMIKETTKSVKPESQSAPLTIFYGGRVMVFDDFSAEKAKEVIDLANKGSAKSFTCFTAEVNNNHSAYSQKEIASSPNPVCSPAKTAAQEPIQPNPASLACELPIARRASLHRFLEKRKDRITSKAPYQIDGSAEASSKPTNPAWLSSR
T1 sequence (O04197 1-592): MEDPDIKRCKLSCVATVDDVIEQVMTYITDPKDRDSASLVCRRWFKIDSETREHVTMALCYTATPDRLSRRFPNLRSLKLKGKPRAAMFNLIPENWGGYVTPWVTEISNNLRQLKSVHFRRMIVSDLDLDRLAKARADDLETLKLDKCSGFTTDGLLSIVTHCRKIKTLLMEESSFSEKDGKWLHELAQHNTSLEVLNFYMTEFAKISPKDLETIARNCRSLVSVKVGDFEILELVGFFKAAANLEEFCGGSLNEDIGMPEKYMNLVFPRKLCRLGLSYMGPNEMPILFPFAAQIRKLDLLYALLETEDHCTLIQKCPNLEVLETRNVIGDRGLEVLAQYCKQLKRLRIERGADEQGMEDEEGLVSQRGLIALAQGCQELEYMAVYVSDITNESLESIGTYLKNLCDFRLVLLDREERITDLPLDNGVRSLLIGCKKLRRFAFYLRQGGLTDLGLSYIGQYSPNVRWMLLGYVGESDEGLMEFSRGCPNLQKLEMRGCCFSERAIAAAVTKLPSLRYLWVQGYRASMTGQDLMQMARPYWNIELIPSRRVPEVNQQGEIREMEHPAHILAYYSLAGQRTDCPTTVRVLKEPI
T1 sequence (Q39255 1-160 partner): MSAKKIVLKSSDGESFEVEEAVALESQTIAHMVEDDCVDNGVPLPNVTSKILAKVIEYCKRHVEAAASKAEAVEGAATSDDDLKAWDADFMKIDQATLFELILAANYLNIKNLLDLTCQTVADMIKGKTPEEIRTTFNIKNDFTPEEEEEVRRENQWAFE
Description: For JAZ promoter:GUS expression experiments, five to seven days-old seedlings were treated with mock solution or 50 μM JA for 2 h and GUS stained as previously described (Fernandez-Calvo, P. et al. Plant Cell. 2011; 23(2): 701-715). For JAZ2 protein stability experiments, seven to nine days-old seedlings were treated with mock solution or 50 nM COR for 3 h. Then, samples were placed in staining solution containing 50 mM phosphate buffer, pH 7, 0.1% (v/v) Triton X-100 (Sigma-Aldrich), 2 mM 5-bromo-4-chloro-3-indolyl b-D glucuronic acid (X-Gluc, Glycosynth), 1 mM potassium-ferrocyanide (Sigma-Aldrich), and 1 mM potassium-ferricyanide (Sigma-Aldrich) and incubated at 37° C. overnight. After staining, the tissue was soaked several times in 75% ethanol and kept in 5% glycerol until being photographed with a Leica DMR UV/VIS microscope.

Compound: CC/C=C\C[C@H]1C(=O)CC[C@@H]1CC(=O)O [JA, jasmonic acid]
- JAZ2 expression (pJAZ2:GUS) after JA treatment (JAZ2 promoter): induced it in roots and mesophyll cells of young seedlings
- JAZ1 expression (pJAZ1:GUS) after JA treatment (JAZ1 promoter): strongly induced JAZ1 in roots and mesophyll cells

Compound: CC[C@H]1C=C(C(=O)N[C@@]2(C(=O)O)C[C@@H]2CC)[C@H]2CCC(=O)[C@H]2C1 [COR, coronatine]
- COR-induced stomata reopening (stomata guard cells): triggered COR-induced stomata reopening in JAZ2-3 and WT plants, but not in coi1-30
- COR concentration inducing rapid degradation of JAZ2 protein at guard cells (JAZ2 protein): ≤ 50 nM
